Measurements: patent US10960015B2, “Effervescent formulation based on pyridoxal-5-phosphate” (Assistance Publique-Hopitaux De Paris, priority 2015, dated 2021)

What was measured:
Assay type in all cases: physicochemical
[1] = Tapped density (volumenometer, PE 2.9.34); settings: after tamping; for Hausner ratio: criterion <1.20; for Carr index: criterion <20%
Procedure: B. Tapped Density (PE 2.9.34)
The tests were performed on a volumenometer (Erweka® GmbH SVM12). The Carr and Hausner indices can be determined by this test. The tests performed on the raw materials were carried out on 100 g of powder, and on 20 g for mixtures (batches A, F, G, H, I, J).

[2] = Angle of repose (PE 2.9.36); settings: mixing time 5 minutes
Procedure: (§1) A. Funnel Flow and Angle of Repose (PE 2.9.16-2.9.36)
(§2) The tests were performed on an Erweka® flow tester on all of the raw materials and mixtures tested using a standardized funnel. The tests performed on the raw materials were carried out on 100 g of powder, and on 20 g for mixtures (batches A, F, G, H, I, J).
Determination of the angle of repose was performed on the powders alone and on the mixtures, as defined in the European Pharmacopeia. Different mixing times of 5, 10 and 30 minutes were tested on the mixtures (batches of F to J) to determine the influence of the mixing time on the flow (Table IV).

[3] = Funnel flow (Erweka flow tester, PE 2.9.16); settings: standardized funnel; 100 g raw materials, 20 g mixtures
Procedure: as §1, §2

[4] = Laser diffraction granulometry (dry mode, Mastersizer S)
Procedure: Laser Diffraction Granulometry (European Pharmacopeia (PE), Current Edition, 2.9.31)
Analysis of the granulometric distribution was performed in dry mode on a Mastersizer S laser granulometer (Malvern®). The detection range of this instrument in dry mode is from 0.05 μm to 900 μm. This study was performed on 20 g of active principle, at a pressure of 1, 2 and 3 bar. Each test was performed 3 times for each pressure.

Carr index, interpretation [1]	Compactibility (V10-V500) [1]	Hausner ratio, interpretation [1]	Hausner ratio [1]	Carr index [1]	Angle of repose [2]	Angle of repose, Interpretation [2]	Flow [3]	d50 ([4]; dry mode)	particle size ([4]; dry mode, 1, 2 and 3 bar)	Compound
Excellent	0 mL	Excellent	1.02	7.48%	38.3°	Quite	27.1 s			OC[C@@H](O)[C@@H](O)[C@H](O)[C@H](O)CO [Batch Q, Mannitol]
Excellent	9 mL	Excellent	1.10	9.05%	43.6°	Passable	9.6 s			OC[C@@H](O)[C@@H](O)[C@H](O)[C@@H](O)CO [Batch E, Sorbitol]
Excellent	3 mL	Excellent	1.10	8.70%	40.5°	Quite	22 s			OC[C@H]1O[C@@](CO)(O[C@H]2O[C@H](CO)[C@@H](O)[C@H](O)[C@H]2O)[C@@H](O)[C@@H]1O [Batch D, Sucrose]

More lines, now with the values behind:

Compound	Carr index, interpretation [1]	Compactibility (V10-V500) [1]	Hausner ratio, interpretation [1]	Hausner ratio [1]	Carr index [1]	Angle of repose [2]	Angle of repose, Interpretation [2]	Flow [3]	d50 ([4]; dry mode)	particle size ([4]; dry mode, 1, 2 and 3 bar)
Isomalt [Batch C]	Good	8 mL	Good	1.13	11.25%	45°	Passable	23.8 s		
Cc1ncc(COP(=O)(O)O)c(C=O)c1O [Batch A, Pyridoxal-5-phosphate]								no flow	11 μm	below 100 μm
